Reference: patent publication US20060116407A1, “Amide derivatives” (priority 2004, published 2006)

Each compound was assayed on HEK293 cells (assay: Viability assay of HEK293 cells (CellTiter-Glo)). Conditions: Homo sapiens, 168 h, 7 days, 3 μM to 0.00015 μM, luminescence.
Type: cell-based
Method: Viability Assay of HEK293 Cells
A viability assay was performed using the CellTiter-Glo™ Luminescent Cell Viability Assay (see Promega Corporation's Technical Publication No. 288, pp. 1-11 [revised 2.04] which is hereby incorporated by reference in its entirety). This assay is a homogeneous method of determining the number of viable cells in culture based on quantitation of the ATP present, which signals the presence of metabolically active cells. The assay is designed for use with multiwell formats, making it ideal for automated high-throughput screening (HTS), cell proliferation and cytotoxicity assays. The homogeneous assay procedure involves adding a single reagent (containing luciferase, luciferan substrate, and buffer) directly to cells cultured in serum-supplemented medium. Cell washing, removal of medium and multiple pipetting steps are not required. The system detects as few as 15 cells/well in a 384-well format in 10 minutes after adding reagent and mixing.
The homogeneous “add-mix-measure” format results in cell lysis and generation of a luminescent signal proportional to the amount of ATP present. The amount of ATP is directly proportional to the number of cells present in culture. The above-referenced assay generates a “glow-type” luminescent signal, produced by the luciferase reaction, which has a half-life generally greater than five hours, depending on cell type and medium used. The extended half-life eliminates the need to use reagent injectors and provides flexibility for continuous or batch mode processing of multiple plates. The unique homogeneous format avoids errors that may be introduced by other ATP measurement methods that require multiple steps.
HEK293 cells (human embryonic kidney cell line transformed by Adenovirus 5 fragments, ATCC-No. CRL 1573) were cultivated in Dulbecco's Modified Eagle Medium (DMEM) (1×) liquid (high glucose) (which includes L-Alanyl-L-Glutamine [a stabilized a form of L-Glutamine], 4500 mg/L glucose, and 110 mg/L sodium pyruvate) from Invitrogen Corporation (Invitrogen Catalog Number 31966-021 [now 10569-010] which is hereby incorporated by reference in its entirety), 5% Fetal Calf Serum (FCS, Sigma Cat-No. F4135 (FBS) which is hereby incorporated by reference in its entirety), and 100 Units/ml penicillin/100 μg/ml streptomycin(=Pen/Strep from Invitrogen Cat. No. 15140 which is hereby incorporated by reference in its entirety). For the assay the cells were seeded in 384 well plates, 5000 cells per well, in the same medium. The next day the test compounds were added in various concentrations ranging from 3 μM to 0.00015 μM (10 concentrations, 1:3 diluted). After 7 days the above viability assay was performed in accordance with the following steps: • Step 1: The cell-plate was equilibrated to room temperature for approximately 30 minutes and than the assay reagent was added. • Step 2: The contents were carefully mixed for 15 minutes to induce cell lysis. • Step 3: After 45 minutes the luminescent signal was measured in Victor 2, (scanning multiwell spectrophotometer, Wallac). Details: 1st Day: • Medium: Dulbecco's Modified Eagle Medium (DMEM) (1×) liquid (high glucose) (which includes L-Alanyl-L-Glutamine [a stabilized a form/source of L-Glutamine], 4500 mg/L glucose, and 110 mg/L sodium pyruvate) from Invitrogen Corporation (Invitrogen Catalog Number 31966-021 [now 10569-010]), 5% Fetal Calf Serum (FCS, Sigma Cat-No. F4135 (FBS)), and Pen/Strep (Invitrogen Cat. No. 15140). • HEK293 (ATCC-No. CRL 1573): 5000 cells in 60 μl per well of 384 well plate. (Greiner 781098, white plates) • Incubate 24 h at 37° C., 5% CO2 2nd Day: Induction (Substance Testing):
In general the dilution steeps are 1:3 a) Add 8 μl of 10 mM stock solution of compound to 72 μl DMSO b) dilute 9×1:3 (always 30 μl to 60 μl DMSO) in this DMSO dilution row (results in 10 wells with concentrations from 1000 μM to 0.06 μM) c) dilute each concentration 1: 4.8 (10 μl compound dilution to 38 μl medium) […]

O=C(Nc1ccc(C(F)(F)F)cc1[N+](=O)[O-])c1coc(COc2ccc(CCCCn3ccnn3)cc2)n1 [Example 4, 2-[4-(4-[1,2,3]Triazol-1-yl-butyl)-phenoxymethyl]-oxazole-4-carboxylic acid (2-nitro-4-trifluoromethyl-phenyl)-amide] and O=C(Nc1ccc(F)c([N+](=O)[O-])c1)c1coc(COc2ccc(CCCCn3ccnn3)cc2)n1 [Example 21, 2-[4-(4-[1,2,3]Triazol-1-yl-butyl)-phenoxymethyl]-oxazole-4-carboxylic acid (4-fluoro-3-nitro-phenyl)-amide] cannot be ordered by IC50: 127 nM for the first, 5 to 500 nM for the second.

CSc1ccc(NC(=O)c2coc(COc3ccc(CCCCn4ccnn4)cc3)n2)cc1 [Example 24, 2-[4-(4-[1,2,3]Triazol-1-yl-butyl)-phenoxymethyl]-oxazole-4-carboxylic acid (4-methylsulfanyl-phenyl)-amide] and Cc1ccc(NC(=O)c2coc(COc3ccc(CCCCn4ccnn4)cc3)n2)cc1 [Example 28, 2-[4-(4-[1,2,3]Triazol-1-yl-butyl)-phenoxymethyl]-oxazole-4-carboxylic acid p-tolylamide] cannot be ordered by IC50: 1060 nM for the first, 500 to 3000 nM for the second.

O=C(Nc1nc(COc2ccc(CCCCn3ccnn3)cc2)cs1)c1cccc(F)c1 [Example 52-25, 3-Fluoro-N-{4-[4-(4-[1,2,3]triazol-1-yl-butyl)-phenoxymethyl]-thiazol-2-yl}-benzamide] and O=C(Nc1nc(COc2ccc(CCCCn3ccnn3)cc2)cs1)c1cccc(Cl)c1 [Example 52-12, 3-Chloro-N-{4-[4-(4-[1,2,3]triazol-1-yl-butyl)-phenoxymethyl]-thiazol-2-yl}-benzamide] fall in the same range of IC50: 5 to 500 nM for the first, 5 to 500 nM for the second.

O=C(Nc1nc(COc2ccc(CCCCn3ccnn3)cc2)cs1)c1ccc(OC(F)(F)F)cc1 [Example 52-4, N-{4-[4-(4-[1,2,3]Triazol-1-yl-butyl)-phenoxymethyl]-thiazol-2-yl}-4-trifluoromethoxy-benzamide] and O=C(Nc1nc(COc2ccc(CCCCn3ccnn3)cc2)cs1)c1ccc(SC(F)(F)F)cc1 [Example 52-7, N-{4-[4-(4-[1,2,3]Triazol-1-yl-butyl)-phenoxymethyl]-thiazol-2-yl}-4-trifluoromethylsulfanyl-benzamide] fall in the same range of IC50: 5 to 500 nM for the first, 5 to 500 nM for the second.

O=C(Nc1ccc(SC(F)F)cc1)c1coc(COc2ccc(CCCCn3ccnn3)cc2)n1 [Example 8, 2-[4-(4-[1,2,3]Triazol-1-yl-butyl)-phenoxymethyl]-oxazole-4-carboxylic acid (4-difluoromethylsulfanyl-phenyl)-amide] and O=C(Nc1ccc(F)c(Cl)c1)c1coc(COc2ccc(CCCCn3ccnn3)cc2)n1 [Example 12, 2-[4-(4-[1,2,3]Triazol-1-yl-butyl)-phenoxymethyl]-oxazole-4-carboxylic acid (3-chloro-4-fluoro-phenyl)-amide] fall in the same range of IC50: 5 to 500 nM for the first, 5 to 500 nM for the second.

First: O=C(Nc1nc(COc2ccc(CCCCn3ccnn3)cc2)cs1)c1cccc(C(F)(F)F)c1 [Example 52-2, N-{4-[4-(4-[1,2,3]Triazol-1-yl-butyl)-phenoxymethyl]-thiazol-2-yl}-3-trifluoromethyl-benzamide]
Second: O=C(Nc1nc(COc2ccc(CCCCn3ccnn3)cc2)cs1)c1ccc(F)c(Cl)c1 [Example 52-19, 3-Chloro-4-fluoro-N-{4-[4-(4-[1,2,3]triazol-1-yl-butyl)-phenoxymethyl]-thiazol-2-yl}-benzamide]
The IC50 of the first is higher: 500 to 3000 nM for the first, 5 to 500 nM for the second.

Compared with O=C(Nc1c(Cl)cccc1Cl)c1coc(COc2ccc(CCCCn3ccnn3)cc2)n1 [Example 44, 2-[4-(4-[1,2,3]Triazol-1-yl-butyl)-phenoxymethyl]-oxazole-4-carboxylic acid (2,6-dichloro-phenyl)-amide], Cc1c(F)cccc1NC(=O)c1coc(COc2ccc(CCCCn3ccnn3)cc2)n1 [Example 20, 2-[4-(4-[1,2,3]Triazol-1-yl-butyl)-phenoxymethyl]-oxazole-4-carboxylic acid (3-fluoro-2-methyl-phenyl)-amide] is higher in IC50: 5 to 500 nM for the first, 500 to 3000 nM for the second. The first is the more potent here.

Cc1cc(OCc2nc(C(=O)Nc3cccc(Cl)c3)co2)ccc1CCCCn1ccnn1 [Example 48, 2-[3-Methyl-4-(4-[1,2,3]triazol-1-yl-butyl)-phenoxymethyl]-oxazole-4-carboxylic acid (3-chloro-phenyl)-amide] and Cc1cc(OCc2nc(C(=O)Nc3cccc(Cl)c3)cs2)ccc1CCCCn1ccnn1 [Example 51, 2-[3-Methyl-4-(4-[1,2,3]triazol-1-yl-butyl)-phenoxymethyl]-thiazole-4-carboxylic acid (3-chloro-phenyl)-amide] fall in the same range of IC50: 5 to 500 nM for the first, 5 to 500 nM for the second.

Cc1cc(OCc2nc(C(=O)Nc3ccc(C(F)(F)F)cc3)co2)ccc1CCCCn1ccnn1 [Example 46, 2-[3-Methyl-4-(4-[1,2,3]triazol-1-yl-butyl)-phenoxymethyl]-oxazole-4-carboxylic acid (4-trifluoromethyl-phenyl)-amide] and O=C(Nc1ccc(Cl)c(C(F)(F)F)c1)c1coc(COc2ccc(CCCCn3ccnn3)cc2)n1 [Example 27, 2-[4-(4-[1,2,3]Triazol-1-yl-butyl)-phenoxymethyl]-oxazole-4-carboxylic acid (4-chloro-3-trifluoromethyl-phenyl)-amide] fall in the same range of IC50: 5 to 500 nM for the first, 5 to 500 nM for the second.

Cc1ccc(C(=O)Nc2nc(COc3ccc(CCCCn4ccnn4)cc3)cs2)cc1 [Example 52-14, 4-Methyl-N-{4-[4-(4-[1,2,3]triazol-1-yl-butyl)-phenoxymethyl]-thiazol-2-yl}-benzamide] and Cc1cc(C(=O)Nc2nc(COc3ccc(CCCCn4ccnn4)cc3)cs2)ccc1F [Example 52-26, 4-Fluoro-3-methyl-N-{4-[4-(4-[1,2,3]triazol-1-yl-butyl)-phenoxymethyl]-thiazol-2-yl}-benzamide] fall in the same range of IC50: 5 to 500 nM for the first, 5 to 500 nM for the second.

O=C(Nc1nc(COc2ccc(CCCCn3ccnn3)cc2)cs1)c1ccc(Cl)c(F)c1 [Example 52-6, 4-Chloro-3-fluoro-N-{4-[4-(4-[1,2,3]triazol-1-yl-butyl)-phenoxymethyl]-thiazol-2-yl}-benzamide] and O=C(Nc1nc(COc2ccc(CCCCn3ccnn3)cc2)cs1)c1cc(F)ccc1F [Example 52-15, 2,5-Difluoro-N-{4-[4-(4-[1,2,3]triazol-1-yl-butyl)-phenoxymethyl]-thiazol-2-yl}-benzamide] fall in the same range of IC50: 5 to 500 nM for the first, 5 to 500 nM for the second.

First: O=C(Nc1nc(COc2ccc(CCCCn3ccnn3)cc2)cs1)c1ccccc1Cl [Example 52-16, 2-Chloro-N-{4-[4-(4-[1,2,3]triazol-1-yl-butyl)-phenoxymethyl]-thiazol-2-yl}-benzamide]
Second: O=C(Nc1nc(COc2ccc(CCCCn3ccnn3)cc2)cs1)c1cc(F)cc(F)c1 [Example 52-23, 3,5-Difluoro-N-{4-[4-(4-[1,2,3]triazol-1-yl-butyl)-phenoxymethyl]-thiazol-2-yl}-benzamide]
The IC50 of the first is higher: 500 to 3000 nM for the first, 5 to 500 nM for the second. The second is the more potent here.

First: CN(C(=O)c1coc(COc2ccc(CCCCn3ccnn3)cc2)n1)c1ccccc1 [Example 29, 2-[4-(4-[1,2,3]Triazol-1-yl-butyl)-phenoxymethyl]-oxazole-4-carboxylic acid methyl-phenyl-amide]
Second: O=C(Nc1ccccc1F)c1coc(COc2ccc(CCCCn3ccnn3)cc2)n1 [Example 33, 2-[4-(4-[1,2,3]Triazol-1-yl-butyl)-phenoxymethyl]-oxazole-4-carboxylic acid (2-fluoro-phenyl)-amide]
The IC50 of the first is higher: 500 to 3000 nM for the first, 5 to 500 nM for the second.
